From the NIST ThermoML archive (doi:10.1016/j.jct.2016.03.034)

Experiment: xn = mol fraction of the nth substance listed
Settings: 100 kPa, Liquid; for viscosity: Capillary tube (Ostwald / Ubbelohde) method; for mass density: Vibrating tube method

O=C1CCCO1 [γ-butyrolactone] + CCCCCC[n+]1ccn(C)c1.O=S(=O)([N-]S(=O)(=O)C(F)(F)F)C(F)(F)F
Settings | mass density [kg/m3] | viscosity [mPa·s]
293.15 K, x2 = 0 | 1129.49 | 1.86
293.15 K, x2 = 0.0507 | 1176 | 2.63
293.15 K, x2 = 0.0999 | 1209.89 | 3.68
293.15 K, x2 = 0.1544 | 1238.99 | 5.32
293.15 K, x2 = 0.1999 | 1258.54 | 6.49
293.15 K, x2 = 0.3004 | 1291.11 | 10.57
293.15 K, x2 = 0.404 | 1314.91 | –
293.15 K, x2 = 0.5044 | 1332.2 | 23.96
293.15 K, x2 = 0.596 | 1344.4 | –
293.15 K, x2 = 0.7027 | 1355.85 | 44.32
293.15 K, x2 = 0.8182 | 1365.51 | –
293.15 K, x2 = 0.8924 | 1370.62 | 70.24
298.15 K, x2 = 0 | 1124.59 | 1.71
298.15 K, x2 = 0.0507 | 1171.09 | 2.43
298.15 K, x2 = 0.0999 | 1204.99 | 3.32
298.15 K, x2 = 0.1544 | 1234.06 | 4.67
298.15 K, x2 = 0.1999 | 1253.61 | 5.73
298.15 K, x2 = 0.3004 | 1286.27 | 9.16
298.15 K, x2 = 0.404 | 1310.08 | –
298.15 K, x2 = 0.5044 | 1327.28 | 19.96
298.15 K, x2 = 0.596 | 1339.47 | –
298.15 K, x2 = 0.7027 | 1350.79 | 35.8
298.15 K, x2 = 0.8182 | 1360.52 | –
298.15 K, x2 = 0.8924 | 1365.62 | 55.4
303.15 K, x2 = 0 | 1119.68 | 1.58
303.15 K, x2 = 0.0507 | 1166.32 | 2.18
303.15 K, x2 = 0.0999 | 1200.4 | 3
303.15 K, x2 = 0.1544 | 1229.53 | 4.08
303.15 K, x2 = 0.1999 | 1249.21 | 5.07
303.15 K, x2 = 0.3004 | 1281.91 | 7.91
303.15 K, x2 = 0.404 | 1305.79 | –
303.15 K, x2 = 0.5044 | 1323.05 | 16.88
303.15 K, x2 = 0.596 | 1335.25 | –
303.15 K, x2 = 0.7027 | 1346.64 | 29.15
303.15 K, x2 = 0.8182 | 1356.39 | –
303.15 K, x2 = 0.8924 | 1361.5 | 44.29
308.15 K, x2 = 0 | 1114.78 | 1.47
308.15 K, x2 = 0.0507 | 1161.53 | 1.97
308.15 K, x2 = 0.0999 | 1195.65 | 2.74
308.15 K, x2 = 0.1544 | 1224.8 | 3.69
308.15 K, x2 = 0.1999 | 1244.56 | 4.55
308.15 K, x2 = 0.3004 | 1277.26 | 7
308.15 K, x2 = 0.404 | 1301.16 | –
308.15 K, x2 = 0.5044 | 1318.46 | 14.47
308.15 K, x2 = 0.596 | 1330.67 | –
308.15 K, x2 = 0.7027 | 1342.09 | 25.57
308.15 K, x2 = 0.8182 | 1351.83 | –
308.15 K, x2 = 0.8924 | 1356.94 | 36.71
313.15 K, x2 = 0 | 1109.87 | 1.37
313.15 K, x2 = 0.0507 | 1156.54 | 1.84
313.15 K, x2 = 0.0999 | 1190.58 | 2.52
313.15 K, x2 = 0.1544 | 1219.69 | 3.34
313.15 K, x2 = 0.1999 | 1239.41 | 4.11
313.15 K, x2 = 0.3004 | 1272 | 6.23
313.15 K, x2 = 0.404 | 1295.78 | –
313.15 K, x2 = 0.5044 | 1313.05 | 12.29
313.15 K, x2 = 0.596 | 1325.23 | –
313.15 K, x2 = 0.7027 | 1336.62 | 20.49
313.15 K, x2 = 0.8182 | 1346.3 | –
313.15 K, x2 = 0.8924 | 1351.37 | 30.2
318.15 K, x2 = 0 | 1104.96 | 1.28
318.15 K, x2 = 0.0507 | 1151.65 | 1.7
318.15 K, x2 = 0.0999 | 1185.71 | 2.31
318.15 K, x2 = 0.1544 | 1214.89 | 3.03
318.15 K, x2 = 0.1999 | 1234.59 | 3.7
318.15 K, x2 = 0.3004 | 1267.16 | 5.72
318.15 K, x2 = 0.404 | 1290.94 | –
318.15 K, x2 = 0.5044 | 1308.19 | 10.74
318.15 K, x2 = 0.596 | 1320.36 | –
318.15 K, x2 = 0.7027 | 1331.75 | 17.5
318.15 K, x2 = 0.8182 | 1341.42 | –
318.15 K, x2 = 0.8924 | 1346.5 | 25.41
323.15 K, x2 = 0 | 1100.05 | 1.2
323.15 K, x2 = 0.0507 | 1147.03 | 1.58
323.15 K, x2 = 0.0999 | 1181.36 | 2.14
323.15 K, x2 = 0.1544 | 1210.78 | 2.69
323.15 K, x2 = 0.1999 | 1230.51 | 3.38
323.15 K, x2 = 0.3004 | 1263.32 | 5.21
323.15 K, x2 = 0.404 | 1287.31 | –
323.15 K, x2 = 0.5044 | 1304.67 | 9.36
323.15 K, x2 = 0.596 | 1316.95 | –
323.15 K, x2 = 0.7027 | 1328.43 | 15
323.15 K, x2 = 0.8182 | 1338.19 | –
323.15 K, x2 = 0.8924 | 1343.3 | 21.39
